Test results from article PMC11114221, “A pattern recognition artificial olfactory system based on human olfactory receptors and organic synaptic devices” (Science Advances, 2024).

Assays:
Assay in all cases: tryptophan fluorescence quenching
Format in all cases: binding
Details in all cases: receptor nanodiscs 500 nM; 20 mM Hepes, 100 mM NaCl, pH 8.0
hOR52D1 = target: T1, hOR52D1 (Homo sapiens, UniProt Q9H346)
T1 construct: gene OR52D1; E. coli SuptoxR (Rosetta 2 (DE3) with RraA); ~38 kDa
T1 sequence (Q9H346 1-318): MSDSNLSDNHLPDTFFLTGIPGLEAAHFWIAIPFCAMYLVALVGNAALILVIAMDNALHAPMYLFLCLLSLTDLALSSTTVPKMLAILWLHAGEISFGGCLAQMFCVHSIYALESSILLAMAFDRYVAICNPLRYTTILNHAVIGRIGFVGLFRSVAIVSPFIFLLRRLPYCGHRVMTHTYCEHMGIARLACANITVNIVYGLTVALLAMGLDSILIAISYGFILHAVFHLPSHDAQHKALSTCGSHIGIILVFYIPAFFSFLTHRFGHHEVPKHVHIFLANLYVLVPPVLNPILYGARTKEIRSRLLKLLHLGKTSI

hOR51E1 = target: T2, hOR51E1 (Homo sapiens, UniProt Q8TCB6)
T2 construct: gene OR51E1; E. coli SuptoxR (Rosetta 2 (DE3) with RraA); ~38 kDa
T2 sequence (Q8TCB6 1-318): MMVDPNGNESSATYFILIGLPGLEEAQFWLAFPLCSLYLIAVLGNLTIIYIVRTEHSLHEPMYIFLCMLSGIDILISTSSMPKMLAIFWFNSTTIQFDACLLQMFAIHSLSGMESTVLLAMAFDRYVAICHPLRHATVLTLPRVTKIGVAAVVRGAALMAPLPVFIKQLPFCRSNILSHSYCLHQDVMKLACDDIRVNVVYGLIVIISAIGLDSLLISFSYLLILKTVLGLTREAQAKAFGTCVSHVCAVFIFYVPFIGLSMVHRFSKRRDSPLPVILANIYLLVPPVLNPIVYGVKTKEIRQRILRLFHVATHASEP

hOR51E2 = target: T3, hOR51E2 (Homo sapiens, UniProt Q9H255)
T3 construct: gene OR51E2; E. coli SuptoxR (Rosetta 2 (DE3) with RraA); ~38 kDa
T3 sequence (Q9H255 1-320): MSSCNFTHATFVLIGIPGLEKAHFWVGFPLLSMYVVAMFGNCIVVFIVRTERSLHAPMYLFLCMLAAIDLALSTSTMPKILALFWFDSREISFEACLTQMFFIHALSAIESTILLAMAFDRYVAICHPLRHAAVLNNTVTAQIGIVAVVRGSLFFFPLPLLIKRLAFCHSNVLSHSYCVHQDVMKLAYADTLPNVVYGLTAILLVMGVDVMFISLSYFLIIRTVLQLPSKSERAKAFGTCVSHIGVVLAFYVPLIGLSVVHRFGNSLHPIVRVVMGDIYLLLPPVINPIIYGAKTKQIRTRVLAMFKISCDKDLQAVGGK

**Q.** What does the source list for `CCCC(=O)O` [BA, butyric acid]?
**A.** ∆F/F0 (%) (hOR52D1): each hOR ND displayed distinct binding affinities toward the SCFAs; ∆F/F0 (%) (hOR51E1): each hOR ND displayed distinct binding affinities toward the SCFAs; ∆F/F0 (%) (hOR51E2): each hOR ND displayed distinct binding affinities toward the SCFAs

**Q.** What does the source list for `CCCCC(=O)O` [VA, valeric acid]?
**A.** ∆F/F0 (%) (hOR52D1): each hOR ND displayed distinct binding affinities toward the SCFAs; ∆F/F0 (%) (hOR51E1): each hOR ND displayed distinct binding affinities toward the SCFAs; ∆F/F0 (%) (hOR51E2): each hOR ND displayed distinct binding affinities toward the SCFAs

**Q.** What does the source list for `CCCCCC(=O)O` [HA, hexanoic acid]?
**A.** ∆F/F0 (%) (hOR52D1): each hOR ND displayed distinct binding affinities toward the SCFAs; ∆F/F0 (%) (hOR51E1): each hOR ND displayed distinct binding affinities toward the SCFAs; ∆F/F0 (%) (hOR51E2): each hOR ND displayed distinct binding affinities toward the SCFAs

**Q.** `CCC(=O)O` [PA, propionic acid] was tested. Which “∆F/F0 (%)” value (hOR52D1) did it give?
**A.** Its value is “each hOR ND displayed distinct binding affinities toward the SCFAs”.

**Q.** What about the “∆F/F0 (%)” value (hOR51E1) of the same molecule?
**A.** Its value is “each hOR ND displayed distinct binding affinities toward the SCFAs”.

**Q.** And the “∆F/F0 (%)” value (hOR51E2)?
**A.** Its value is “each hOR ND displayed distinct binding affinities toward the SCFAs”.
